Reference: US9982249B2, “Xylose isomerases and their uses” (BP Corporation North America Inc., priority 2012, dated 2018)

How the values were obtained:
Test in all cases: Km and Vmax determination at pH 6 (XI activity assay coupled to sorbitol dehydrogenase, Hanes plot)
Assay type in all cases: biochemical
Conditions in all cases: xylose about 40-600 mM, about 35° C., lysate of S. cerevisiae CEN.PK2-1Ca expressing XI from p426PGK1
[1] = tested on: Prevotella xylose isomerase, clone 5586MI108_002, SEQ ID NO: 96
Procedure: (§1) XI activity in cell lysates was determined using a method based on that of Kersters-Hilderson et al., 1986, Enzyme Microb. Technol. 9:145-148, in which enzymatic conversion of xylose to xylulose by the XI is coupled with the enzymatic conversion of the product (xylulose) to xylitol via the enzyme sorbitol dehydrogenase (SDH). SDH activity requires the oxidation of NADH to NAD^+. The rate of oxidation of NADH is directly proportional to the rate of SDH conversion of D-xylulose to D-xylitol and is measured by the decrease in absorbance at 340 nm One unit of enzyme activity as measured by this assay is a decrease of […] of NADH per minute under assay conditions. All reactions, solutions, plates, and spectrophotometer were equilibrated to about 35° C. prior to use. Assays were performed either on fresh lysates immediately after preparation or lysates that had been frozen at −20° C. immediately after preparation. Assays were performed using a BioTek Model: Synergy H1 Hybrid Reader spectrophotometer and 96-well plates (Corning, Model #Costar® #3598). All spectrophotometric readings were performed at 340 nm. […]
(§2) The reaction buffer used for experiments at pH 7.5 was about 100 mM Tris-HCl (pH 7.5). […] For experiments where activity was also measured at pH 6, the buffer was changed to about 100 mM sodium phosphate, pH 6. […]
(§3) Any sample dilutions were performed using the reaction buffer as diluent. […] Reactions were mixed and read immediately using kinetic assay mode for about 10 minutes. Volumetric activity (VA) units are in milli-absorbance (mA) units per minute per ml of lysate added to the reactions (mA/min/ml). […] If protein quantitation was performed, specific activities (SA) were calculated where the units for SA are (mole NADH^+/min/mg, or U/mg lysate protein). […]
(§4) The Km and Vmax at pH 6 were determined for a subset of the XI clones, expressed on p426PGK1 vector in Saccharomyces cerevisiae CEN.PK2-1Ca (ATCC: MYA1108), using the XI activity assay described in the Materials and Methods and varying the concentrations of xylose from about 40-600 mM. […]

[2] = tested on: Firmicutes xylose isomerase, clone 1753MI4_001, SEQ ID NO: 38
Procedure: as §1, §2, §3, §4

[3] = tested on: Prevotella xylose isomerase, clone 1754MI1_001, SEQ ID NO: 78
Procedure: as §1, §2, §3, §4

OC1OC[C@@H](O)[C@H](O)[C@H]1O (stereo partly drawn) [xylose, D-xylose]
Km [1]: 33.7 mM
Km [2]: 28.8 mM
Km [3]: 35.2 mM
